According to patent publication EP4644383A1 (Jiangsu Yahong Meditech Co., Ltd., priority 2022, dated 2024):
Read-outs that look alike come from different tables or passages of the source.

Target: T1, FGFR3 (Homo sapiens, UniProt P22607)
T1 construct: FGFR3's cytoplasmic domain [436-806 (terminal) amino acids]; purchased Carna 08-135
Experiment: FGFR3 kinase activity inhibition assay (LanthaScreen TR-FRET)
Assay type: biochemical
Protocol: PV3552) and 10 mM EDTA were added to quench the kinase reaction, and incubated at 22°C for 60 minutes. • ⑤ The reaction was measured using a PerkinElmer EnVision multimode plate reader through TR-FRET dual wavelength detection. • 1. The RFU values were copied from the Envision program. • 2. The ratio of RFU 520nm/RFU 495nm was calculated. • 3. The value of the ratio was converted to a percentage inhibition value. % Inhibition = (max-data)/(max-min) × 100 [formula] "Min" represents the ratio of the control without enzyme, "max" represents the ratio of the DMSO control, and "data" represents the ratio of the compounds in wells with different concentrations. […] "Top" refers to the maximum response, "Bottom" refers to the minimum response, and "HillSlope" refers to the slope of the curve. According to the same method as that in the FGFR1 kinase activity inhibition assay, the inhibitory activities against FGFR2, FGFR3 and FGFR4 were tested using FGFR2's cytoplasmic domain [399-821 (terminal) amino acids] (Carna: 08-134), FGFR3's cytoplasmic domain [436-806 (terminal) amino acids] (Carna: 08-135) and FGFR4's cytoplasmic domain [460-802 (terminal) amino acids] (Carna: 08-136), respectively. […]

[1] = FGFR3 kinase, TR-FRET, read-out: IC50 (nM) FGFR3

T1 sequence (P22607 436-806): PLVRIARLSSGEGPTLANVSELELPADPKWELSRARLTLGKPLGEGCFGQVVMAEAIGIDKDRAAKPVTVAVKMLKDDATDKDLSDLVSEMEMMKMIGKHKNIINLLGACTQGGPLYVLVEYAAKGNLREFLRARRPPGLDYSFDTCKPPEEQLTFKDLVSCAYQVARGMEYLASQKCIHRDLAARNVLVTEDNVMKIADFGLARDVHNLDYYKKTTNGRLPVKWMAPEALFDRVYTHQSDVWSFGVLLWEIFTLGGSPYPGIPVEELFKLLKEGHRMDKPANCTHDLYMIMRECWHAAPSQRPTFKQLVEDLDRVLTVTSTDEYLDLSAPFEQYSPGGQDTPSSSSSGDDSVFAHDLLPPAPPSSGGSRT

Structure (SMILES)	IC50 [1]	also measured
CC(Oc1ccc2[nH]nc(-c3cnn(C)c3)c2c1)c1nc(C#N)cc2nccnc12 (stereo not drawn) [Example 235, 5-(1-((3-(1-methyl-1H-pyrazol-4-yl)-1H-indazol-5-yl)oxy)ethyl)pyridino[3,4-b]pyr azine-7-carbonitrile]	10 to 100 nM	–
Cn1cc(-c2n[nH]c3ccc(C(=O)NCc4c(Cl)cncc4Cl)cc23)cn1 [Example 78, N-((3,5-dichloropyridin-4-yl)methyl)-3-(1-methyl-1H-pyrazol-4-yl)-1H-indazole-5-carboxamide]	> 100 nM	–
CC(Oc1ccc2[nH]nc(-c3cnn(C)c3)c2c1)c1cccc2cccnc12 (stereo not drawn) [Example 105, 8-(1-((3-(1-methyl-1H-pyrazol-4-yl)-1H-indazol-5-yl)oxy)ethyl)quin oline]	10 to 100 nM	–
CNCCNC(=O)c1cc2c(-c3cnn(C)c3)n[nH]c2cc1F [Example 73]	> 100 nM	–
CNCCNC(=O)c1ccc2[nH]nc(-c3nc4c([nH]3)CN(C)C4)c2c1 [Example 83, 3-(5-methyl-1,4,5,6-tetrahydropyrrolo[3,4-d]imidazol-2-yl)-N-(2-(methylamino)ethyl)-1H-indazole-5-carboxamide]	> 100 nM	–
CC(Oc1ccc2[nH]nc(-c3cnn(C)c3)c2c1)c1cc(N(C)C)cc2ncccc12 (stereo not drawn) [Example 151]	10 to 100 nM	–
Cc1cccc(C)c1NC(=O)c1ccc2[nH]nc(-c3cnn(C)c3)c2c1 [Example 77, N-(2,6-dimethylphenyl)-3-(1-methyl-1H-pyrazol-4-yl)-1H-indazole-5-carboxamide]	> 100 nM	–
CC(Oc1ccc2[nH]nc(-c3cnn(C)c3)c2c1)c1cccc2scnc12 (stereo not drawn) [Example 109]	10 to 100 nM	–
CC(Oc1ccc2[nH]nc(-c3cnn(C)c3)c2c1)c1cccc2cnccc12 (stereo not drawn) [Example 104, 5-(1-((3-(1-methyl-1H-pyrazol-4-yl)-1H-indazol-5-yl)oxy)ethyl)isoq uinoline]	1 to 10 nM	–
C[C@@H](Oc1ccc2[nH]nc(-c3cnn4ccccc34)c2n1)c1c(Cl)cncc1Cl [Example 43, (R)-5-(1-(3,5-dichloropyridin-4-yl)ethoxy)-3-(pyrazolo[1,5-a]pyridin-3-yl)-1H-pyrazolo[4,3-b]pyridine]	> 100 nM	–
C#Cc1cc(C(C)Oc2ccc3[nH]nc(-c4cnn(C)c4)c3c2)c2nccnc2c1 (stereo not drawn) [Example 146, 7-ethynyl-5-(1-((3-(1-methyl-1H-pyrazol-4-yl)-1H-indazol-5-yl)oxy)ethyl)quinoxa line]	1 to 10 nM	–
Cn1cc(-c2n[nH]c3ccc(OC4CCCc5cnccc54)cc23)cn1 (stereo not drawn) [Example 90, 5-((3-(1-methyl-1H-pyrazol-4-yl)-1H-indazol-5-yl)oxy)-5,6,7,8-tetrahydroisoquin oline]	> 100 nM	–
Cc1ccc2ncccc2c1C(=O)Oc1ccc2[nH]nc(-c3cnn(C)c3)c2c1 [Example 118]	10 to 100 nM	–
CC(Oc1ccc2[nH]nc(-c3cnn(C)c3)c2c1)c1nccs1 (stereo not drawn) [Example 91, 2-(1-((3-(1-methyl-1H-pyrazol-4-yl)-1H-indazol-5-yl)oxy)ethyl)thiazole]	10 to 100 nM	–
CC(Oc1ccc2[nH]nc(-c3cnn(C)c3)c2c1)c1cccc2c1OCCO2 (stereo not drawn) [Example 97, 5-(1-(2,3-dihydrobenzo[b][1,4]dioxan-5-yl)ethoxy)-3-(1-methyl-1H-pyrazol-4-yl)-1H-indazole]	> 100 nM	–
Cc1ccc2ncccc2c1C(C)Oc1ccc2[nH]nc(-c3cn(C)nn3)c2c1 (stereo not drawn) [Example 165, 6-methyl-5-(1-((3-(1-methyl-1H-1,2,3-triazol-4-yl)-1H-indazol-5-yl)oxy)ethyl)qui noline]	10 to 100 nM	–
Cc1c[nH]c(-c2n[nH]c3c(C)cc(O[C@H](C)c4c(Cl)cncc4Cl)cc23)n1 [Example 9, (R)-5-(1-(3,5-dichloropyridin-4-yl)ethoxy)-7-methyl-3-(4-methyl-1H-imidazol-2-yl)-1H-indazole]	> 100 nM	–
CNCCN(C)C(=O)c1ccc2[nH]nc(-c3cnn(C)c3)c2c1 [Example 66, N-methyl-3-(1-methyl-1H-pyrazol-4-yl)-N-(2-(methylamino)ethyl) -1H-indazole-5-carboxamide]	–	IC50 (read-out: IC50 (nM) FGFR3, FGFR3 kinase, TR-FRET): > 100 nM
CNCCNC(=O)c1cc(F)c2[nH]nc(-c3cnn(CCN4CCOCC4)c3)c2c1 [Example 70, 7-fluoro-N-(2-(methylamino)ethyl)-3-(1-(2-morpholinoethyl)-1H-pyrazol-4-yl)-1H-indazole-5-carboxamide]	> 100 nM	–
CC(Oc1ccc2[nH]nc(-c3cnn(C)c3)c2c1)c1cc(C(F)(F)F)cc2nccnc12 (stereo not drawn) [Example 137, 5-(1-((3-(1-methyl-1H-pyrazol-4-yl)-1H-indazol-5-yl)oxy)ethyl)-7-(trifluoromethyl)quinoxaline]	10 to 100 nM	–

Structure (SMILES)	IC50 [1]	also measured
CC(Oc1ccc2[nH]nc(-c3cnn(C)c3)c2c1)c1c(C(F)(F)F)ccc2ncccc12 (stereo not drawn) [Example 172, 5-(1-((3-(1-methyl-1H-pyrazol-4-yl)-1H-indazol-5-yl)oxy)ethyl)-6-(trifluoromethyl)quinoline]	10 to 100 nM	–
CC(Oc1ccc2[nH]nc(-c3cnn(C)c3)c2c1)c1cncc2ncccc12 (stereo not drawn) [Example 108, 5-(1-((3-(1-methyl-1H-pyrazol-4-yl)-1H-indazol-5-yl)oxy)ethyl)-1,7-naphthyridine]	> 100 nM	–
Cc1ccc(C(C)Oc2ccc3[nH]nc(-c4cnn(C)c4)c3c2)c2cccnc12 (stereo not drawn) [Example 123, 8-methyl-5-(1-((3-(1-methyl-1H-pyrazol-4-yl)-1H-indazol-5-yl)oxy)ethyl)qu inoline]	> 100 nM	–
CC(Oc1ccc2[nH]nc(-c3cnn(C)c3)c2c1)C1CCOCC1 (stereo not drawn) [Example 86, 3-(1-methyl-1H-pyrazol-4-yl)-5-(1-(tetrahydro-2H-pyran-4-yl)ethoxy)-1H-indazole]	> 100 nM	–
CC(Oc1ccc2[nH]nc(-c3cnn(C)c3)c2c1)c1cccc2occc12 (stereo not drawn) [Example 106, 5-(1-(benzofuran-4-yl)ethoxy)-3-(1-methyl-1H-pyrazol-4-yl)-1H-indazole]	10 to 100 nM	–
Cc1ccc2ncccc2c1C(C)Sc1ccc2[nH]nc(-c3cnn(C)c3)c2c1 (stereo not drawn) [Example 115, 6-methyl-5-(1-((3-(1-methyl-1H-pyrazol-4-yl)-1H-indazol-5-yl)thio)ethyl)quinoline]	> 100 nM	–
CC(Oc1ccc2[nH]nc(-c3ccc(N4CCS(=N)(=O)CC4)nc3)c2c1)c1cccc2nccnc12 (stereo not drawn) [Example 153]	< 1 nM	–
CC(C)c1cc(O[C@H](C)c2c(Cl)cncc2Cl)cc2c(-c3cnn(C)c3)n[nH]c12 [Example 6, (R)-5-(1-(3,5-dichloropyridin-4-yl)ethoxy)-7-isopropyl-3-(1-methyl-1H-pyrazol-4-yl)-1H-indazole]	> 100 nM	–
Cc1ccc2ncccc2c1C(Oc1ccc2[nH]nc(-c3cnn(C)c3)c2c1)C(F)(F)F (stereo not drawn) [Example 121, 6-methyl-5-(2,2,2-trifluoro-1-((3-(1-methyl-1H-pyrazol-4-yl)-1H-indazol-5-yl)oxy)ethyl)quinoline]	> 100 nM	–
CNCCn1cc(-c2ccc3[nH]nc(-c4nc(C)c[nH]4)c3c2)nn1 [Example 75, N-methyl-2-(4-(3-(4-methyl-1H-imidazol-2-yl)-1H-indazol-5-yl)-1H-1,2,3-triazol-1-yl)ethan-1-amine]	> 100 nM	–
C[C@@H](Oc1ccc2[nH]nc(-c3cnn(CC(C)(C)O)c3)c2n1)c1c(Cl)cncc1Cl [Example 38, (R)-1-(4-(5-(1-(3,5-dichloropyridin-4-yl)ethoxy)-1H-pyrazolo[4,3-b]pyridin-3-yl)-1H-pyrazol-1-yl)-2-methylpropan-2-ol]	–	IC50: 10 to 100 nM
CC(Oc1ccc2[nH]nc(-c3cnn(C)c3)c2c1)c1ccn2ccnc2c1 (stereo not drawn) [Example 89, 5-(1-(imidazo[1,2-a]pyridine-7-yl)ethoxy)-3-(1-methyl-1H-pyrazol-4-yl)-1H-indazole]	> 100 nM	–
Cc1ccc2ncccc2c1C(C)Oc1cc2c(-c3cnn(C)c3)n[nH]c2cn1 (stereo not drawn) [Example 131]	1 to 10 nM	–
COc1cc(OC(C)c2nc(C)cc3nccnc23)cc2c(-c3cnn(C)c3)n[nH]c12 (stereo not drawn) [Example 231, 5-(1-((7-methoxy-3-(1-methyl-1H-pyrazol-4-yl)-1H-indazol-5-yl)oxy)ethyl)-7-methylpyrido[3,4-b]pyrazine]	1 to 10 nM	–
CC(C)Cn1cc(-c2n[nH]c3ccc(O[C@H](C)c4c(Cl)cncc4Cl)nc23)cn1 [Example 51, (R)-5-(1-(3,5-dichloropyridin-4-yl)ethoxy)-3-(1-isobutyl-1H-pyrazol-4-yl)-1H-pyrazolo[4,3-b]pyridine]	> 100 nM	–
CNCCNC(=O)c1cc2c(-c3cnn(C)c3)n[nH]c2cc1OC [Example 72, 6-methoxy-3-(1-methyl-1H-pyrazol-4-yl)-N-(2-(methylamino)ethyl)-1H-indazole-5-carboxamide]	> 100 nM	–
CC(Oc1ccc2[nH]nc(-c3cnn(C)c3)c2c1)c1c(F)ccc2ncccc12 (stereo not drawn) [Example 102, 6-fluoro-5-(1-((3-(1-methyl-1H-pyrazol-4-yl)-1H-indazol-5-yl)oxy)ethyl)qu inoline]	1 to 10 nM	–
Cc1ccc2ncccc2c1C(C)Oc1cnc2[nH]nc(-c3cnn(C)c3)c2c1 (stereo not drawn) [Example 117, 6-methyl-5-(1-((3-(1-methyl-1H-pyrazol-4-yl)-1H-pyrazino[3,4-b]pyridin-5-yl)oxy)ethyl)quinoline]	–	IC50: 10 to 100 nM
C[C@@H](Oc1ccc2[nH]nc(-c3ccc(N4CCOCC4)nc3)c2n1)c1c(Cl)cncc1Cl [Example 33, (R)-4-(5-(5-(1-(3,5-dichloropyridin-4-yl)ethoxy)-1H-pyrazolo[4,3-b]pyridin-3-yl)pyridin-2-yl)morpholine]	–	IC50: 10 to 100 nM
